Measured values published in patent publication US20240239794A1, “PKC-Theta Modulators” (Exscientia AI Limited, priority 2021, published 2024).
Where two headings read alike, the source gives them in different places.

How the values were obtained:
[1] = system: IL-2 secretion by human effector memory T cells (TEM); assay: Effector memory T cells IL-2 release assay; type: cell-based; conditions: T-cell, human CD4+ TEM cells, CD3/CD28 bead stimulation, 24 h
Method in brief: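 Human CD4+ effector memory T cells (negatively sorted from donor PBMC), 5,000 per well, stimulated with CD3/CD28 beads and 10 semi-log compound doses for 24 h at 37° C, 0.1% DMSO. Supernatant IL-2 measured by HTRF; IC50 from 4-parameter logistic fit; viability checked by flow cytometry.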

[2] = molecular target: Recombinant human PKC-theta (His-tagged 362-706) (Homo sapiens (Human), UniProt Q04759); assay: PKC-theta inhibition assay (HTRF KinEASE kit); type: biochemical; conditions: ATP 6.5 μM
Method in brief: (§1)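 HTRF KinEASE kinase assay, buffer supplemented with 10 mM MgCl2, 1 mM DTT, 0.1% Tween 20; enzyme at 10 ng/ml preincubated 30 min on ice with compound. PKC-theta: 525 nM STK substrate, 6.5 μM ATP, 30 min at 25° C; PKC-delta: 243 nM substrate, 5.7 μM ATP, 20 min. IC50 from 4-parameter fit of 10-dose series.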

[3] = molecular target: Recombinant human PKC-delta (His-tagged 345-676) (Homo sapiens (Human), UniProt Q05655); assay: PKC-delta inhibition assay (HTRF KinEASE kit), PKC-theta/PKC-delta selectivity; type: biochemical; conditions: ratio; for PKC-theta/PKC-delta selectivity: PKC-theta over PKC-delta, HTRF assays; for PKC-theta/PKC-delta selectivity (binned): binned A to G
Method in brief: as §1

[4] = binned A to G, read-out: PKC-theta IL2 pIC50 (binned) (converted)
[5] = read-out: PKC-theta IL2 pIC50 (converted)
[6] = binned A to H, read-out: PKC-theta HTRF pIC50 (binned) (converted)
[7] = read-out: PKC-theta HTRF pIC50 (converted)

Sequence of Recombinant human PKC-theta (His-tagged 362-706) (Q04759 362-706): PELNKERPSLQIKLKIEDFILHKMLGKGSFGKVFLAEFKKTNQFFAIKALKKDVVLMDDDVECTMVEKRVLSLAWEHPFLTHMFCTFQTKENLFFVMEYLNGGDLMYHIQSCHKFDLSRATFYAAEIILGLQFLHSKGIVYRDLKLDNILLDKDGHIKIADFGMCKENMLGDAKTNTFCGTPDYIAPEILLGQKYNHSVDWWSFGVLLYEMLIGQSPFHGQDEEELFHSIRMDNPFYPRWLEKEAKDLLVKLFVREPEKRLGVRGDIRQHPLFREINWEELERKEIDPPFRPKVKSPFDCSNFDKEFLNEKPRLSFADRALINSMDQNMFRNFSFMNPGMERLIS
Sequence of Recombinant human PKC-delta (His-tagged 345-676) (Q05655 345-676): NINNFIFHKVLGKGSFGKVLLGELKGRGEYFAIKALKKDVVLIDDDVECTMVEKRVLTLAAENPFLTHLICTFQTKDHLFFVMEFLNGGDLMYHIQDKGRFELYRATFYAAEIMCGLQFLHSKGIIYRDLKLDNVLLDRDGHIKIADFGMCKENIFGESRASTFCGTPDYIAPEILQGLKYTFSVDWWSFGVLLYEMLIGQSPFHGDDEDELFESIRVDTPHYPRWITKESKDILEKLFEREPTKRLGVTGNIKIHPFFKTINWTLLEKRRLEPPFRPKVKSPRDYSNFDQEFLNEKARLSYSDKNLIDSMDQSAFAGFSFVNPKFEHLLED

SMILES | IC50 [1, 4] [nM] | IC50 [1, 5] [nM] | PKC-theta HTRF pIC50 [2] | IC50 [2, 6] [nM] | PKC-theta/PKC-delta selectivity [3] | PKC-theta/PKC-delta selectivity (binned) [3] | IC50 [2, 7] [nM]
O=c1[nH]c2nccc(-c3cnn(C4CCNCC4)c3)c2[nH]1 [Example 1] | > 1000 | 3160 | 6.1 | 316 to 1000 | 1 | G (G means a ratio of between 0 and 1) | 
CC1(O)C(=O)Nc2nccc(-c3cn([C@@H]4CCNC4)c4ccccc34)c21 (stereo partly drawn) [Example 111] | 316 to 1000 | 398 | 8.0 | 10 to 31.6 | 7 | E (E means a ratio of between 5 and 10) | 
CC[C@@]1(O)C(=O)Nc2nccc(-c3nn([C@@H]4CCNC[C@@H]4F)c4ccccc34)c21 (single isomer, unassigned) [Example 83] | 31.6 to 100 | 63.1 |  | 1 to 3.16 | 13 | D (D means a ratio of between 10 and 20) | 1.58
CC1(C)C(=O)Nc2nccc(-c3nn(C[C@]4(C)COCCN4)c4cc(F)ccc34)c21 [Example 110] | > 1000 | 1000 | 7.6 | 10 to 31.6 | 29 | C (C means a ratio of between 20 and 30) | 
CC1(C)C(=O)Nc2nccc(-c3cn(C4(CC#N)CCC4)c4ccccc34)c21 [Example 21, 2-[1-[3-(3,3-dimethyl-2-oxo-1H-pyrrolo[2,3-b]pyridin-4-yl)indol-1-yl]cyclobutyl]acetonitrile] | > 1000 | 1000 | 7.3 | 31.6 to 100 | 9 | E (E means a ratio of between 5 and 10) | 
CC[C@@]1(O)C(=O)Nc2nccc(-c3nn([C@H]4CCNC[C@H]4F)c4ccccc34)c21 (single isomer, unassigned) [Example 82] | 31.6 to 100 | 50.1 |  | ≤ 1 | 12 | D (D means a ratio of between 10 and 20) | 0.794
CC[C@@]1(C)C(=O)Nc2nccc(-c3nn([C@@H]4CCNC[C@@H]4F)c4cc(F)ccc34)c21 (single isomer, unassigned) [Example 103] | 31.6 to 100 | 63.1 |  | 1 to 3.16 | 22 | C (C means a ratio of between 20 and 30) | 2.51
CC1(C)C(=O)Nc2nccc(-c3nn([C@H]4CCNC4)c4cc(Cl)ccc34)c21 [Example 71] | 100 to 316 | 126 | 8.1 | 3.16 to 10 | 22 | C (C means a ratio of between 20 and 30) | 
CCC1(C)C(=O)Nc2nccc(-c3nn([C@@H]4CCNC[C@@H]4F)c4ccccc34)c21 (stereo partly drawn) [Example 52] | 31.6 to 100 | 39.8 | 8.4 | 3.16 to 10 | 8 | E (E means a ratio of between 5 and 10) | 
CC1(O)C(=O)Nc2nccc(-c3nn([C@@H]4CC[C@@H](N)[C@H](F)C4)c4ccccc34)c21 (stereo partly drawn) [Example 39] | 3.16 to 10 | 10 | 9.7 | ≤ 1 | 10 | E (E means a ratio of between 5 and 10) | 
CC1(C)C(=O)Nc2nccc(-c3nn(C[C@@]4(C)COCCN4)c4ccccc34)c21 (single isomer, unassigned) [Example 31] | 31.6 to 100 | 39.8 | 8.9 | 1 to 3.16 | 22 | C (C means a ratio of between 20 and 30) | 
